Results published in US20240043618A1, “ANTIMICROBIAL COMPOSITIONS” (priority 2021, published 2024).

Key:
S. aureus (gram+) = settings: reported value of antibiotic; cited from earlier work
E. coli (gram−) = settings: reported value of antibiotic; cited from earlier work
[1] = system: C. albicans fungal strain; settings: reported value of antibiotic; cited from earlier work
P. aeruginosa (gram−) = settings: reported value of antibiotic; cited from earlier work
B. subtilis (gram+) = settings: reported value of antibiotic; cited from earlier work
SARS-CoV-2 = assay type: cell-based; settings: 70% concentration, 30 min contact, 22 ± 2° C.

| Compound | MIC (S. aureus (gram+)) | MIC (E. coli (gram−)) | MIC [1] | MIC (P. aeruginosa (gram−)) | MIC (B. subtilis (gram+)) | Toxicity (highest dilution of the endpoint titer where full (80-100%) cytotoxicity was observed) (Vero E6 cells) | Virus Titer (SARS-CoV-2) | LRV (log reduction value) (SARS-CoV-2; vs virus control 4.3) |
| --- | --- | --- | --- | --- | --- | --- | --- | --- |
| gentamycin | 10 µg/mL | 8 µg/mL | 2.5 µg/mL | 4 µg/mL | 4 µg/mL | – | – | – |
| CCO [Ethanol] | – | – | – | – | – | None | <0.7 log10 CCID50 of virus per 0.1 mL | >3.6 |
